Test results taken from patent US20220089602A1, “COMPOUNDS THAT INDUCE FERROPTIC CELL DEATH” (The Board of Trustees of the University of Illinois, priority 2019, published 2022).
Entries after “also recorded” stand apart in the source; their conditions may differ.

Key:
ES-2 cells = assay: Protection studies against ferroptocide-induced cell death, AV/PI; assay type: cell-based; settings: pre-treatment with protecting agent
Protocol: (§1) ES-2, HCT 116, Mia PaCa-2, A549, and 4T1 cells (1×10^5 cells/mL) were plated overnight in 12 well plates, prior to addition of compounds. For protection studies, samples were pre-treated with each protecting agent such as 25 μM Q-VD-OPh, 250 μM trolox, 2 μM ferrostatin-1, 5 mM NAC-1 (neutralized pH), or 100 μM deferoxamine (DFO) for two hours or 1 hr (NAC-1) before compound addition. Cells were incubated for the appropriate times and harvested for flow cytometry analysis. Cell pellets were resuspended in binding buffer (10 mM HEPES, pH 7.4, 140 mM NaCl, 2.5 mM CaCl2) containing 2 μg/mL propidium iodide and 5 μL/mL Annexin V-FITC conjugate antibody and analyzed for cell viability after gating for forward and side scattering. Ten thousand events were collected per sample in BD LSR II Flow Cytometer (BD Bioscience) and FCS express V6, De Novo software was used to perform experimental analysis.

A549 cells = assay: as above; assay type: cell-based; settings: pre-treatment with protecting agent
Protocol: as §1

HCT 116 cells [1] = assay: as above; assay type: cell-based; settings: pre-treatment with protecting agent
Protocol: Cells were incubated for the appropriate times and harvested for flow cytometry analysis. Cell pellets were resuspended in binding buffer (10 mM HEPES, pH 7.4, 140 mM NaCl, 2.5 mM CaCl2) containing 2 μg/mL propidium iodide and 5 μL/mL Annexin V-FITC conjugate antibody and analyzed for cell viability after gating for forward and side scattering. Ten thousand events were collected per sample in BD LSR II Flow Cytometer (BD Bioscience) and FCS express V6, De Novo software was used to perform experimental analysis.

4T1 cells = assay: as above; assay type: cell-based, murine; settings: pre-treatment with protecting agent
Protocol: as §1

red blood cells = assay: Hemolysis assay; assay type: cell-based, human; settings: 2 hr treatment with 333 μM
Protocol: Whole human blood in citrate phosphate dextrose was obtained from Bioreclamation LLC, stored at 4° C. and used before expiration date. 100 μL of whole blood was combined with 500 μL saline (0.9% NaCl) and centrifuged for 5 min at 300×g. The supernatant was carefully removed from the erythrocyte pellet and the liquid was discarded. Washed pellet 3× in 500 μL saline. The erythrocyte pellet was resuspended in 800 μL of Red Blood Cell Buffer (10 mM Na2HPO4, 150 mM NaCl, 1 mM MgCl2, pH 7.4). To a 0.5 mL eppendorf tube or a PCR plate was added 1.0 μL of 30× compound in DMSO and 19 μL RBC Buffer. For negative controls, 1.0 μL DMSO was combined with 19 μL RBC buffer. For positive controls, either 20 μL MilliQ H2O or 1.0 μL 30% Triton X-100 were combined with 19 μL RBC Buffer. Tubes or plates were briefly centrifuged. Next, 10 μL of washed erythrocyte suspension was added to each tube, then sealed. After incubation at 37° C. for 2 h, samples were centrifuged for 5 min at 300×g, and 20 μL of supernatant was carefully removed and transferred to wells of a clear flat-bottomed 384-well plate. Absorbance was measured at 540 nm. The data were plotted as compound concentration versus percent hemolysis, and fitted to OriginPro (OriginLab, Northampton, Mass.).

ES-2 cell line = assay: 72 hr cell viability assay (Alamar Blue), dose response IC50; assay type: cell-based; settings: Homo sapiens; 72 hr, ES-2 cell line, Alamar Blue fluorescence, mean ± s.e.m., n ≥ 3
Protocol: 40 μL of media was added to each well of a 384-well tissue culture-treated plate. 3×100 nL of compound in DMSO was then pin-transferred from compound storage plates (2 mM stocks) into media-containing wells using the Platemate Plus at the UIUC High Throughput Screening Facility. A 100,000 cells/mL suspension of ES-2 cells was prepared, and 10 μL was added to each well for a final concentration of 1000 cells/well. Doxorubicin (100 μM final) was used as a positive control. Plates were sealed with gas-permeable seals and incubated at 37° C. for 72 h. After incubation, 5 μL of Alamar blue (440 μM resazurin in sterile PBS) was added and allowed to incubate for 3-4 h, until visible color change occurred. Fluorescence was measured in a Molecular Devices SpectraMax 3 (excitation=555 nm, emission=585 nm, emission cutoff=570 nm).
To a 384-well plate, 40 μL of 1.25× compound dilution or 1.25% DMSO-containing media was added (final volume of 1% DMSO). Concentrations of compounds tested were 100 μM to 100 nM. On each plate at least 3 technical replicates per compound were performed. Next, 10 μL of a 100,000 cells/mL suspension was added to each well, yielding a final concentration of 1,000 cells/well. To three wells in column 2 was added 1 μL of 10 mM doxorubicin (final concentration of 200 μM) as positive control of cell death. Plates were sealed with gas-permeable seals and incubated at 37° C. for 72 h. At that time, 5 μL of Alamar blue (440 μM resazurin in sterile PBS) was added and plates were incubated for 3-4 hours. Fluorescence was read on a Molecular Devices SpectraMax 3 (excitation=555 nm, emission=585 nm, emission cutoff=570 nm). Wells were normalized to the average of untreated wells (0% cell death). The data were plotted as compound concentration versus percent dead cells and fitted to a logistic-dose response curve using OriginPro 2015 (OriginLab, Northampton, Mass.). The data were generated in triplicate, and IC50 values are reported as the average of three separate experiments along with standard error of the mean.

HCT 116 cells [2] = assay: In-gel fluorescence proteome labeling; assay type: cell-based; settings: 30 min dose-dependent treatment
Protocol: Cells were harvested by centrifugation (500×g, 3 min), washed with PBS, and resuspended in RIPA lysis buffer (50 mM Tris, 150 mM NaCl, 1% Triton X-100, 0.5% sodium deoxycholate, 0.1% SDS, pH=7.4) containing 1× protease inhibitor cocktail on ice. Protein concentration was determined by the Bradford assay and lysates were stored at −20° C. until further use. Samples were resolved in a 4-20% SDS-PAGE gel (Bio-Rad) at 120 V for 70 min. After PBS washes, each gel was scanned for fluorescence signal using a Molecular Dynamics Typhoon 9400 Multilaser Scanner at the Proteomics Center at UIUC (excitation at 526 nm, green laser, high sensitivity, 530 pmt). Gels were then treated with Coomassie Blue stain (Imperial Stain, ThermoFisher) via shaking for 45 min to stain for the total protein content. Upon proteome labeling, gels were destained for 15 min-overnight on MilliQ H2O followed by imaging in a Gel Dox XR+ from Bio-Rad (ex. 470 nm, UV High filter).

SMILES	protection against ferroptocide-induced cell death (ES-2 cells)	protection against ferroptocide-induced cell death (A549 cells)	protection against ferroptocide-induced cell death (HCT 116 cells [1])	protection against ferroptocide-induced cell death (4T1 cells)	hemolytic activity (red blood cells)	IC50 (ES-2 cell line)	proteome labeling selectivity (HCT 116 cells [2])
Cc1c(C)c2c(c(C)c1O)CCC(C)(C(=O)O)O2 (stereo not drawn) [trolox]	significantly protected against ferroptocide-induced cell death	significantly protected against ferroptocide-induced cell death	significantly protected against ferroptocide-induced cell death	significantly protected against ferroptocide-induced cell death	–	–	–
CCOC(=O)c1ccc(NC2CCCCC2)c(N)c1 [ferrostatin-1]	significantly protected against ferroptocide-induced cell death	significantly protected against ferroptocide-induced cell death	significantly protected against ferroptocide-induced cell death	significantly protected against ferroptocide-induced cell death	–	–	–
C=CC(=C)[C@@H]1C[C@@H](OC(=O)CCl)[C@]2(C)[C@H](C)CC[C@]3(C[C@H](O)C(=O)[C@]32O)[C@H]1C [Compound P4]	–	–	–	–	no signs of hemolytic activity; also recorded: Lack of hemolytic activity	6.7 µM	–
CC(=O)N[C@@H](CS)C(=O)O [NAC-1, N-acteyl cysteine]	–	protection from ferroptocide- and TBHP-induced cell death	protection from ferroptocide- and TBHP-induced cell death	–	–	–	–
CC1=CC(C)=[N+]2C1=Cc1ccc(CCC(=O)NCCCn3cc(CN4C(=O)C5CC=C([C@@H]6C[C@@H](OC(=O)CI)[C@]7(C)[C@H](C)CC[C@]8(C[C@H](O)C(=O)[C@]87O)[C@H]6C)CC5C4=O)nn3)n1[B-]2(F)F (stereo partly drawn) [Compound P31]	–	–	–	–	–	–	Promiscuous bioactivity
CC(C)[C@H](NC(=O)c1ccc2ccccc2n1)C(=O)N[C@@H](CC(=O)O)C(=O)COc1c(F)cccc1F [Q-VD-OPh]	does not protect against ferroptocide-induced cell death	–	does not protect against ferroptocide-induced cell death	–	–	–	–
